In paper PMC5418314, “First-in-human phase I study of SOR-C13, a TRPV6 calcium channel inhibitor, in patients with advanced solid tumors” (Investigational New Drugs, 2017):
Where two headings read alike, the source gives them in different places. Ends that are not written are not given here.

What was measured:
[1] = half-life in the blood compartment, rat; type: in vivo
[2] = tested on: voltage-gated calcium channels; assay: voltage-gated calcium channel activity; type: biochemical
[3] = peptide degradation in rat plasma; type: in vitro ADME
[4] = GLP toxicology study, daily IV bolus for 28 days, dog; type: in vivo, beagle dogs
Description: Anatomical pathology provided a No Observable Adverse Effect Level (NOAEL) of 200 mg/kg/day for rats. […] With results indicating antitumor activity in animal studies, a small toxicological footprint, a novel oncology target and a mechanism of action supported by the literature, SOR-C13 was formulated for intravenous injection (IV) for clinical evaluation. Here we present results of the ‘first-in-human’, Phase I clinical study evaluating SOR-C13 in adults with advanced solid tumors of epithelial origin refractory to all standard-of-care treatments.

[5] = tested on: voltage-gated sodium channels; assay: voltage-gated sodium channel activity; type: biochemical
[6] = half-life in the blood compartment, dog; type: in vivo
[7] = half-life in the blood compartment, mice; type: in vivo
[8] = Phase I plasma pharmacokinetics; type: in vivo, human; settings: plasma LC-MS; for AUC(0-t) / Cmax / Tmax: plasma
Description: Blood samples were taken on Days 1, 3, 8 and 10 of Cycle 1 to assess the pharmacokinetic (PK) profile of SOR-C13 at the various doses used. Plasma samples for the IV 20 min infusion were taken at pre-infusion, 5, 15 min after the start of infusion and post-infusion at 2, 5, 10 and 30 min and 1, 4 h. Plasma samples for SOR-C13 analysis for the 90 min infusion were taken pre-infusion, at 5, 15 and 45 min after the start of infusion, and at 2, 5, 10 and 30 min post-infusion. Since the infusion for the majority of patients, and further studies will be IV 90 min only PK data for this infusion time are presented. Validated liquid chromatography-mass spectrometry analysis provided the plasma concentration/time data.

[9] = Cohort 3: 1.375 mg/kg, N = 3, 90-min IV infusion, Cycle 1 Day 8

KEFLHPSKVDLPR [SOR-C13]
half-life in the blood compartment [1]: < 5 min
modulation of channel activity [2]: no modulation of channel activity
peptide degradation half-life [3]: about 1 h
antigenicity [4]: no antigenicity
cardiovascular toxicity [4]: no cardiovascular toxicity
toxicity [4]: minimal toxicity
modulation of channel activity [5]: no modulation of channel activity
half-life in the blood compartment [6]: < 5 min
half-life in the blood compartment [7]: < 5 min
time after start of infusion by which steady state was achieved ([8]; 90-min infusion): ≤ 15 min
Peak plasma concentration, Median ([8]; Cohort 3: 1.375 mg/kg, N = 3, 90-min IV infusion, Cycle 1 Day 1): 252.50 ng/mL
Peak plasma concentration, Mean (SD) [8, 9]: 251.03 (75.53) ng/mL
Time to peak plasma concentration, Median [8, 9]: 0.750 h
Time to peak plasma concentration, Median ([8]; Cohort 4: 2.75 mg/kg, N = 6, 90-min IV infusion, Cycle 1 Day 3): 0.750 h
Time to peak plasma concentration, Median ([8]; Cohort 5: 4.13 mg/kg, N = 3, 90-min IV infusion, Cycle 1 Day 10): 0.250 h
Time to peak plasma concentration, Median ([8]; Cohort 6: 6.2 mg/kg, N = 6, 90-min IV infusion, Cycle 1 Day 8): 0.750 h
half-life ([8]; human, iv, patients, 90-min infusion, read-out: elimination half-life (Thalf), estimated overall): < 5 min
AUC(0-t) ([8]; human, iv, 1.375 mg/kg, Cohort 3: 1.375 mg/kg, N = 3, 90-min IV infusion, Cycle 1 Day 1, read-out: AUCtau, Mean (SD)): 256 ng·h/mL
AUC(0-t) ([8]; human, iv, 1.375 mg/kg, Cohort 3: 1.375 mg/kg, N = 3, 90-min IV infusion, Cycle 1 Day 1, read-out: AUCtau, Median): 263 ng·h/mL
Cmax ([8]; human, iv, 1.375 mg/kg, Cohort 3: 1.375 mg/kg, N = 3, 90-min IV infusion, Cycle 1 Day 1, read-out: Peak plasma concentration, Mean (SD)): 244 ng/mL
Tmax ([8]; human, iv, 1.375 mg/kg, Cohort 3: 1.375 mg/kg, N = 3, 90-min IV infusion, Cycle 1 Day 1, read-out: Time to peak plasma concentration, Mean (SD)): 31.6 min
Tmax ([8]; human, iv, 1.375 mg/kg, Cohort 3: 1.375 mg/kg, N = 3, 90-min IV infusion, Cycle 1 Day 1, read-out: Time to peak plasma concentration, Median): 45 min
AUC(0-t) ([8]; human, iv, 1.375 mg/kg, Cohort 3: 1.375 mg/kg, N = 3, 90-min IV infusion, Cycle 1 Day 3, read-out: AUCtau, Mean (SD)): 148 ng·h/mL
AUC(0-t) ([8]; human, iv, 1.375 mg/kg, Cohort 3: 1.375 mg/kg, N = 3, 90-min IV infusion, Cycle 1 Day 3, read-out: AUCtau, Median): 168 ng·h/mL
Cmax ([8]; human, iv, 1.375 mg/kg, Cohort 3: 1.375 mg/kg, N = 3, 90-min IV infusion, Cycle 1 Day 3, read-out: Peak plasma concentration, Mean (SD)): 193 ng/mL
Cmax ([8]; human, iv, 1.375 mg/kg, Cohort 3: 1.375 mg/kg, N = 3, 90-min IV infusion, Cycle 1 Day 3, read-out: Peak plasma concentration, Median): 160 ng/mL
Tmax ([8]; human, iv, 1.375 mg/kg, Cohort 3: 1.375 mg/kg, N = 3, 90-min IV infusion, Cycle 1 Day 3, read-out: Time to peak plasma concentration, Mean (SD)): 11.6 min
Tmax ([8]; human, iv, 1.375 mg/kg, Cohort 3: 1.375 mg/kg, N = 3, 90-min IV infusion, Cycle 1 Day 3, read-out: Time to peak plasma concentration, Median): 15 min
AUC(0-t) ([8]; human, iv, 1.375 mg/kg, Cohort 3: 1.375 mg/kg, N = 3, 90-min IV infusion, Cycle 1 Day 8, read-out: AUCtau, Mean (SD)): 220 ng·h/mL
AUC(0-t) ([8]; human, iv, 1.375 mg/kg, Cohort 3: 1.375 mg/kg, N = 3, 90-min IV infusion, Cycle 1 Day 8, read-out: AUCtau, Median): 230 ng·h/mL
Cmax ([8]; human, iv, 1.375 mg/kg, Cohort 3: 1.375 mg/kg, N = 3, 90-min IV infusion, Cycle 1 Day 8, read-out: Peak plasma concentration, Median): 237 ng/mL
Tmax ([8]; human, iv, 1.375 mg/kg, Cohort 3: 1.375 mg/kg, N = 3, 90-min IV infusion, Cycle 1 Day 8, read-out: Time to peak plasma concentration, Mean (SD)): 47.2 min
AUC(0-t) ([8]; human, iv, 1.375 mg/kg, Cohort 3: 1.375 mg/kg, N = 3, 90-min IV infusion, Cycle 1 Day 10, read-out: AUCtau, Mean (SD)): 184 ng·h/mL
AUC(0-t) ([8]; human, iv, 1.375 mg/kg, Cohort 3: 1.375 mg/kg, N = 3, 90-min IV infusion, Cycle 1 Day 10, read-out: AUCtau, Median): 215 ng·h/mL
Cmax ([8]; human, iv, 1.375 mg/kg, Cohort 3: 1.375 mg/kg, N = 3, 90-min IV infusion, Cycle 1 Day 10, read-out: Peak plasma concentration, Mean (SD)): 224 ng/mL
Cmax ([8]; human, iv, 1.375 mg/kg, Cohort 3: 1.375 mg/kg, N = 3, 90-min IV infusion, Cycle 1 Day 10, read-out: Peak plasma concentration, Median): 181 ng/mL
Tmax ([8]; human, iv, 1.375 mg/kg, Cohort 3: 1.375 mg/kg, N = 3, 90-min IV infusion, Cycle 1 Day 10, read-out: Time to peak plasma concentration, Mean (SD)): 35 min
AUC(0-t) ([8]; human, iv, 2.75 mg/kg, Cohort 4: 2.75 mg/kg, N = 6, 90-min IV infusion, Cycle 1 Day 1, read-out: AUCtau, Mean (SD)): 435 ng·h/mL
AUC(0-t) ([8]; human, iv, 2.75 mg/kg, Cohort 4: 2.75 mg/kg, N = 6, 90-min IV infusion, Cycle 1 Day 1, read-out: AUCtau, Median): 103 ng·h/mL
Cmax ([8]; human, iv, 2.75 mg/kg, Cohort 4: 2.75 mg/kg, N = 6, 90-min IV infusion, Cycle 1 Day 1, read-out: Peak plasma concentration, Mean (SD)): 524 ng/mL
Cmax ([8]; human, iv, 2.75 mg/kg, Cohort 4: 2.75 mg/kg, N = 6, 90-min IV infusion, Cycle 1 Day 1, read-out: Peak plasma concentration, Median): 194 ng/mL
Tmax ([8]; human, iv, 2.75 mg/kg, Cohort 4: 2.75 mg/kg, N = 6, 90-min IV infusion, Cycle 1 Day 1, read-out: Time to peak plasma concentration, Mean (SD)): 39.9 min
Tmax ([8]; human, iv, 2.75 mg/kg, Cohort 4: 2.75 mg/kg, N = 6, 90-min IV infusion, Cycle 1 Day 1, read-out: Time to peak plasma concentration, Median): 45 min
AUC(0-t) ([8]; human, iv, 2.75 mg/kg, Cohort 4: 2.75 mg/kg, N = 6, 90-min IV infusion, Cycle 1 Day 3, read-out: AUCtau, Mean (SD)): 365 ng·h/mL
AUC(0-t) ([8]; human, iv, 2.75 mg/kg, Cohort 4: 2.75 mg/kg, N = 6, 90-min IV infusion, Cycle 1 Day 3, read-out: AUCtau, Median): 250 ng·h/mL
Cmax ([8]; human, iv, 2.75 mg/kg, Cohort 4: 2.75 mg/kg, N = 6, 90-min IV infusion, Cycle 1 Day 3, read-out: Peak plasma concentration, Mean (SD)): 374 ng/mL
Cmax ([8]; human, iv, 2.75 mg/kg, Cohort 4: 2.75 mg/kg, N = 6, 90-min IV infusion, Cycle 1 Day 3, read-out: Peak plasma concentration, Median): 265 ng/mL
Tmax ([8]; human, iv, 2.75 mg/kg, Cohort 4: 2.75 mg/kg, N = 6, 90-min IV infusion, Cycle 1 Day 3, read-out: Time to peak plasma concentration, Mean (SD)): 40.3 min
AUC(0-t) ([8]; human, iv, 2.75 mg/kg, Cohort 4: 2.75 mg/kg, N = 6, 90-min IV infusion, Cycle 1 Day 8, read-out: AUCtau, Mean (SD)): 215 ng·h/mL
AUC(0-t) ([8]; human, iv, 2.75 mg/kg, Cohort 4: 2.75 mg/kg, N = 6, 90-min IV infusion, Cycle 1 Day 8, read-out: AUCtau, Median): 247 ng·h/mL
Cmax ([8]; human, iv, 2.75 mg/kg, Cohort 4: 2.75 mg/kg, N = 6, 90-min IV infusion, Cycle 1 Day 8, read-out: Peak plasma concentration, Mean (SD)): 239 ng/mL
Cmax ([8]; human, iv, 2.75 mg/kg, Cohort 4: 2.75 mg/kg, N = 6, 90-min IV infusion, Cycle 1 Day 8, read-out: Peak plasma concentration, Median): 282 ng/mL
Tmax ([8]; human, iv, 2.75 mg/kg, Cohort 4: 2.75 mg/kg, N = 6, 90-min IV infusion, Cycle 1 Day 8, read-out: Time to peak plasma concentration, Mean (SD)): 21.6 min
Tmax ([8]; human, iv, 2.75 mg/kg, Cohort 4: 2.75 mg/kg, N = 6, 90-min IV infusion, Cycle 1 Day 8, read-out: Time to peak plasma concentration, Median): 15 min
